# Target: T1, SdLPMO10A (Saccharophagus degradans, UniProt Q21N34)
# T1 construct: gene cbpA; AA10 catalytic domain plus CBM2; native signal peptide (24 residues) replaced by pelB, pET-26b(+), E. coli BL21(DE3) periplasm, Ni-NTA purified; N-terminal His25; Cu2+-saturated
# Assay: MALDI-TOF MS of oxidized chitin oligosaccharides
# Assay type: biochemical
# Conditions: electron donor, 1 mM; 10 µM Cu2+-saturated enzyme; alpha-chitin; 20 mM Tris-HCl pH 8.0, 30 °C, 48 h
# T1 sequence (Q21N34 entry or part of it): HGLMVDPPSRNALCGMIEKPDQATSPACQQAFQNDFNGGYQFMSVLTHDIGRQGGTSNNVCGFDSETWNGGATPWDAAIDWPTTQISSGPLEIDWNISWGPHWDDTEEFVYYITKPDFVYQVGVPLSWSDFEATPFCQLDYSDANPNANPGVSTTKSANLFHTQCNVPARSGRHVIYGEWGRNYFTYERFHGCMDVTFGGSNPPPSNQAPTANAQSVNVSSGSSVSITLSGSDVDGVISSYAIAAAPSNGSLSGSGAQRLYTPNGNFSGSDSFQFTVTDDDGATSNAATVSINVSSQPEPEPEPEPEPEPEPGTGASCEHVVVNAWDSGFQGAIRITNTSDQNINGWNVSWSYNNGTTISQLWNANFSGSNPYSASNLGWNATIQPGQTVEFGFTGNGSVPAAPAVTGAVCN
smiles,measurement,value
O=C1O[C@H]([C@@H](O)CO)C(O)=C1O [ascorbic acid],MALDI-TOF MS of oxidized chitin oligosaccharides,"lacking SdLPMO10A or ascorbic acid, no discernible quantity of oxidized chitin oligosaccharides was generated"

# Source: PMC12385910, “The Functional Characterization of an AA10 Lytic Polysaccharide Monooxygenase from Saccharophagus degradans 2-40^T for Enhanced Chitin Biodegradation” (Foods, 2025)
